# Laboratory results reported in US20250129070A1, “BIFUNCTIONAL ANDROGEN RECEPTOR COMPOUNDS” (priority 2023, published 2025).
# Experiments:
# AR / CBP ternary complex = test: Ternary complex formation assay (sandwich ELISA, AR capture / CBP detection) in VCaP cell lysates; assay type: cell-based; conditions: 1.5 hours treatment, sandwich ELISA (AR capture, CBP or p300 detection)
# Method in brief: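 Anti-AR (AR 441)-coated plates capture AR from lysates of VCaP cells grown ≥3 days at 50K/well in 5% charcoal-stripped FBS, dosed with bifunctional for 1.5 h and lysed 30 min at 4 °C. Co-captured CBP/p300 is probed with rabbit mAb and HRP anti-rabbit, then QuantaRed fluorescence (570/585) is read at 0, 5 and 15 min.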
# VCaP cells = test: VCaP growth inhibition assay; assay type: cell-based; conditions: 30 pM R1881, 9 days, CTG
# Method in brief: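 Growth read by CTG luminescence after 9-day exposure to compound (final 100 nM–10 fM, 1:5 steps) plus 30 pM R1881, in phenol red-free DMEM with 5% CSS. Cells pre-incubated 72 h before dosing; IC50 by nonlinear 4-parameter regression.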
EC50 (AR / CBP ternary complex) [nM],IC50 (VCaP cells) [nM],SMILES
< 1,≤ 0.1,"CC(=O)N1CCc2c(c(N3CCCc4cc(-c5cnn(C)c5)c(C(F)F)cc43)nn2C2CCC(OC3CCN(c4ncc(C(=O)NC5C(C)(C)C(Oc6ccc(C#N)c(Cl)c6)C5(C)C)cn4)CC3)CC2)C1 (stereo not drawn) [Compound 339, 2-[4-[4-[5-acetyl-3-[7-(difluoromethyl)-6-(1-methylpyrazol-4-yl)-3,4-dihydro-2H-quinolin-1-yl]-6,7-dihydro-4H-pyrazolo[4,3-c]pyridin-1-yl]cyclohexoxy]-1-piperidyl]-N-[3-(3-chloro-4-cyano-phenoxy)-2,2,4,4-tetramethyl-cyclobutyl]pyrimidine-5-carboxamide]"
1 to 10,0.1 to 1,"CC(=O)N1CCc2c(c(-c3cccc4cc(-c5ccc(CCC6CC7(C6)CN(c6ncc(C(=O)NC8C(C)(C)C(Oc9ccc(C#N)c(Cl)c9)C8(C)C)cn6)C7)nc5)ncc34)nn2C)C1 (stereo not drawn) [Compound 229, 2-[6-[2-[5-[8-(5-acetyl-1-methyl-6,7-dihydro-4H-pyrazolo[4,3-c]pyridin-3-yl)-3-isoquinolyl]-2-pyridyl]ethyl]-2-azaspiro[3.3]heptan-2-yl]-N-[3-(3-chloro-4-cyano-phenoxy)-2,2,4,4-tetramethyl-cyclobutyl]pyrimidine-5-carboxamide]"
> 100,> 100,"Cn1c(=O)sc2ccc(N3CCCc4cc(-c5ccc(CCC6CCN(c7ncc(C(=O)NC8C(C)(C)C(Oc9ccc(C#N)c(Cl)c9)C8(C)C)cn7)CC6)nc5)c(C(F)F)cc43)cc21 (stereo not drawn) [Compound 236, N-[3-(3-chloro-4-cyano-phenoxy)-2,2,4,4-tetramethyl-cyclobutyl]-2-[4-[2-[5-[7-(difluoromethyl)-1-(3-methyl-2-oxo-1,3-benzothiazol-5-yl)-3,4-dihydro-2H-quinolin-6-yl]-2-pyridyl]ethyl]-1-piperidyl]pyrimidine-5-carboxamide]"
1 to 10,1 to 100,"CC(=O)N1CCc2c(c(N3CCCc4cc(-c5cnn(C)c5)c(C(F)F)cc43)nn2C2CCN([C@@H]3CCCN(c4ncc(C(=O)NC5C(C)(C)C(Oc6ccc(C#N)c(Cl)c6)C5(C)C)cn4)C3)CC2)C1 (stereo partly drawn) [Compound 398, 2-[(3R)-3-[4-[5-acetyl-3-[7-(difluoromethyl)-6-(1-methylpyrazol-4-yl)-3,4-dihydro-2H-quinolin-1-yl]-6,7-dihydro-4H-pyrazolo[4,3-c]pyridin-1-yl]-1-piperidyl]-1-piperidyl]-N-[3-(3-chloro-4-cyano-phenoxy)-2,2,4,4-tetramethyl-cyclobutyl]pyrimidine-5-carboxamide]"
1 to 10,1 to 100,"CC(=O)N1CCc2c(c(N3CCCc4cc(-c5cnn(C)c5)c(C(F)F)cc43)nn2C2CC3(C2)CC2(CCN(c4ncc(C(=O)NC5C(C)(C)C(Oc6ccc(C#N)c(Cl)c6)C5(C)C)cn4)CC2)C3)C1 (stereo not drawn) [Compound 287, 2-[2-[5-acetyl-3-[7-(difluoromethyl)-6-(1-methylpyrazol-4-yl)-3,4-dihydro-2H-quinolin-1-yl]-6,7-dihydro-4H-pyrazolo[4,3-c]pyridin-1-yl]-9-azadispiro[3.1.5^6.1^4]dodecan-9-yl]-N-[3-(3-chloro-4-cyano-phenoxy)-2,2,4,4-tetramethyl-cyclobutyl]pyrimidine-5-carboxamide]"
< 1,≤ 0.1,CC(=O)N1CCc2c(c(N3CCCc4cc(-c5cnn(C)c5)c(C(F)F)cc43)nn2C2CCN(C[C@H]3CCN(c4ncc(C(=O)NC5C(C)(C)C(Oc6ccc(C#N)c(Cl)c6)C5(C)C)cn4)C[C@H]3C)CC2)C1 (stereo partly drawn) [Compound 364]
< 1,0.1 to 1,"COc1cc(OC2C(C)(C)C(NC(=O)c3ccc(N4CC(C)C(CN5CCC(n6nc(N7CCCc8cc(C#N)c(C(F)F)cc87)c7c6CCN(C(C)=O)C7)CC5)C(C)C4)cc3)C2(C)C)ccc1C#N (stereo not drawn) [Compound 459, 4-[4-[[4-[5-acetyl-3-[6-cyano-7-(difluoromethyl)-3,4-dihydro-2H-quinolin-1-yl]-6,7-dihydro-4H-pyrazolo[4,3-c]pyridin-1-yl]-1-piperidyl]methyl]-3,5-dimethyl-1-piperidyl]-N-[3-(4-cyano-3-methoxy-phenoxy)-2,2,4,4-tetramethyl-cyclobutyl]benzamide]"
> 100,0.1 to 1,"Cn1cc(-c2cc3cccc(-c4cc(C5CCN(CC6CCN(c7ncc(C(=O)NC8C(C)(C)C(Oc9ccc(C#N)c(Cl)c9)C8(C)C)cn7)CC6)CC5)c5c(c4)n(C)c(=O)n5C)c3cn2)cn1 (stereo not drawn) [Compound 213, N-[3-(3-chloro-4-cyano-phenoxy)-2,2,4,4-tetramethyl-cyclobutyl]-2-[4-[[4-[1,3-dimethyl-6-[3-(1-methylpyrazol-4-yl)-8-isoquinolyl]-2-oxo-benzimidazol-4-yl]-1-piperidyl]methyl]-1-piperidyl]pyrimidine-5-carboxamide]"
< 1,≤ 0.1,"CC(=O)N1CCc2c(c(N3CCCc4cc(-c5cnn(C)c5)c(C(F)F)cc43)nn2C2CCN(CC3CCN(c4ncc(C(=O)NC5C(C)(C)C(Oc6ccc(C#N)c(Cl)c6)C5(C)C)cn4)CC34CC4)CC2)C1 (stereo not drawn) [Compound 357, 2-[8-[[4-[5-acetyl-3-[7-(difluoromethyl)-6-(1-methylpyrazol-4-yl)-3,4-dihydro-2H-quinolin-1-yl]-6,7-dihydro-4H-pyrazolo[4,3-c]pyridin-1-yl]-1-piperidyl]methyl]-5-azaspiro[2.5]octan-5-yl]-N-[3-(3-chloro-4-cyano-phenoxy)-2,2,4,4-tetramethyl-cyclobutyl]pyrimidine-5-carboxamide]"
< 1,0.1 to 1,"CC(=O)N1CCc2c(c(N3CCCc4cc(-c5cnn(C)c5)c(C)cc43)nn2C2CCN(C3CCC4(CC3)CN(c3ncc(C(=O)NC5C(C)(C)C(Oc6ccc(C#N)c(C)c6)C5(C)C)cn3)C4)CC2)C1 (stereo not drawn) [Compound 471, 2-[7-[4-[5-acetyl-3-[7-methyl-6-(1-methylpyrazol-4-yl)-3,4-dihydro-2H-quinolin-1-yl]-6,7-dihydro-4H-pyrazolo[4,3-c]pyridin-1-yl]-1-piperidyl]-2-azaspiro[3.5]nonan-2-yl]-N-[3-(4-cyano-3-methyl-phenoxy)-2,2,4,4-tetramethyl-cyclobutyl]pyrimidine-5-carboxamide]"
< 1,≤ 0.1,"CC(=O)N1CCc2c(c(-c3cccc4cc(-c5cnn(C)c5)ncc34)nn2C2CCN(CC3CCN(c4ncc(C(=O)NC5C(C)(C)C(Oc6ccc(C#N)c(Cl)c6)C5(C)C)cn4)CC3)CC2)C1 (stereo not drawn) [Compound 136, 2-[4-[[4-[5-acetyl-3-[3-(1-methylpyrazol-4-yl)-8-isoquinolyl]-6,7-dihydro-4H-pyrazolo[4,3-c]pyridin-1-yl]-1-piperidyl]methyl]-1-piperidyl]-N-[3-(3-chloro-4-cyano-phenoxy)-2,2,4,4-tetramethyl-cyclobutyl]pyrimidine-5-carboxamide]"

SMILES,EC50 (AR / CBP ternary complex) [nM],IC50 (VCaP cells) [nM]
"CC(=O)N1CCc2c(c(N3CCCc4cc(-c5cnn(C)c5)c(C)cc43)nn2C2CCN(C(=O)C3CCN(c4ncc(C(=O)NC5C(C)(C)C(Oc6ccc(C#N)c(Cl)c6)C5(C)C)cn4)CC3)CC2)C1 (stereo not drawn) [Compound 120, 2-[4-[4-[5-acetyl-3-[7-methyl-6-(1-methylpyrazol-4-yl)-3,4-dihydro-2H-quinolin-1-yl]-6,7-dihydro-4H-pyrazolo[4,3-c]pyridin-1-yl]piperidine-1-carbonyl]-1-piperidyl]-N-[3-(3-chloro-4-cyano-phenoxy)-2,2,4,4-tetramethyl-cyclobutyl]pyrimidine-5-carboxamide]",< 1,≤ 0.1
